From PubChem BioAssay (NCI)
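Each compound was tested at five concentrations against cells in 96-well plates for 48 hours. Here, GI50 denotes the concentration required for 50% inhibition of growth. TGI is the concentration that stops growth completely.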

What was measured:
Experiment in all cases: NCI anticancer screen, dose series, 48 h
K-562 leukemia = system: K-562 leukemia
MALME-3M melanoma = system: MALME-3M melanoma
MOLT-4 leukemia = system: MOLT-4 leukemia
RPMI-8226 leukemia = system: RPMI-8226 leukemia
RXF 393 renal = system: RXF 393 renal
HCT-116 colon = system: HCT-116 colon
SNB-19 CNS = system: SNB-19 CNS
SR leukemia = system: SR leukemia
HS 578T breast = system: HS 578T breast
NCI/ADR-RES ovarian = system: NCI/ADR-RES ovarian

Row | SMILES | TGI (K-562 leukemia) [µM] | TGI (MALME-3M melanoma) [µM] | TGI (MOLT-4 leukemia) [µM] | TGI (RPMI-8226 leukemia) [µM] | TGI (RXF 393 renal) [µM] | GI50 (HCT-116 colon) [µM] | TGI (HCT-116 colon) [µM] | GI50 (K-562 leukemia) [µM] | GI50 (MOLT-4 leukemia) [µM] | GI50 (RPMI-8226 leukemia) [µM] | GI50 (SNB-19 CNS) [µM] | TGI (SNB-19 CNS) [µM] | TGI (SR leukemia) [µM] | GI50 (HS 578T breast) [µM] | TGI (HS 578T breast) [µM] | GI50 (MALME-3M melanoma) [µM] | GI50 (NCI/ADR-RES ovarian) [µM] | TGI (NCI/ADR-RES ovarian) [µM] | GI50 (RXF 393 renal) [µM] | GI50 (SR leukemia) [µM]
1 | COC(=O)C1=C(C(=O)OC)C2C=CC1C1C(Cl)=C(Cl)C21 (stereo not drawn) | > 100 | > 100 | > 100 | > 100 | > 100 |  |  |  |  |  |  |  |  |  |  |  |  |  |  | 
2 | O=C1OCc2c1cc1ccc(O)c(OC3OC(CO)C(O)C(O)C3O)c1c2-c1ccc2c(c1)OCO2 (stereo not drawn) | > 100 | > 100 | > 100 | > 100 | > 100 | 39.7 | > 100 | 39.5 | 34.3 | 34.6 | 36 | > 100 |  |  |  |  |  |  |  | 
3 | OCCC1(O)CCC(O)CC1 (stereo not drawn) | > 100 | > 100 | > 100 | > 100 |  |  | > 100 |  |  |  |  | > 100 | > 100 |  |  |  |  |  |  | 
4 | COc1cc2c3c(n(C)c(=O)c2cc1OC)-c1cc2c(cc1/C3=C\CCCN1C(=O)c3ccccc3C1=O)OCO2 | > 40 | > 40 | 5.17 |  | > 40 | 26.2 | > 40 | 15 | 1.18 |  | > 40 | > 40 |  | > 40 | > 40 | > 40 | > 40 | > 40 | > 40 | 
5 | CC(C)CC(=O)[O-].CC(C)CC(=O)[O-].N.N.N.N.[Co+3].[O-][Cl+3]([O-])([O-])[O-] | > 100 | > 100 | > 100 | > 100 |  | > 100 | > 100 | > 100 | > 100 | > 100 | > 100 | > 100 |  |  |  | > 100 |  |  |  | 
6 | CCCCCCCCCCCCCC(=O)OC1CC(=O)OC1CO (stereo not drawn) | 58.8 | > 100 | 52.1 | > 100 | > 100 |  | > 100 |  |  |  |  | > 100 |  |  |  |  |  |  |  | 
7 | Clc1ccc(C2N3CCCCC3[C@@H]3c4[nH]c5ccccc5c4CCN23)cc1 (stereo partly drawn) | > 100 | 90.4 | > 100 | > 100 | 78.7 |  | > 100 |  |  |  |  | > 100 |  |  |  |  |  |  |  | 
8 | Cc1ccc(-c2c3c([nH]c(=O)c2C#N)-c2cc(F)ccc2OC3)cc1 | > 100 |  | > 100 | > 100 | > 100 |  |  | 86.4 | 97.5 | 28.3 | 70.4 | > 100 | > 100 |  |  |  | > 100 | > 100 | > 100 | > 100
9 | CC12CC[C@@H](C(C)(C)O)C1[C@@H](O)CC1(C)C2CCC2[C@@]3(C)CC[C@H](O)C(C)(C)C3C(O)C[C@]21C (stereo partly drawn) | 24.5 | 32.1 |  | > 100 | 23.5 |  | 31.3 |  |  |  |  | 46.5 |  |  |  |  |  |  |  | 
10 | CCCCNC1=C(C(=O)OCC)C(=O)CO1 | > 100 | > 100 | > 100 | > 100 | > 100 |  |  |  |  |  |  | > 100 |  |  |  |  |  |  |  | 
11 | N#C/C(=C/c1ccsc1)C(=O)c1ccccc1 | > 100 | > 100 | > 100 | > 100 | > 100 |  | > 100 |  |  |  |  | > 100 | > 100 |  |  |  |  |  |  | 
12 | CCOc1ccc2c(c1)[n+]([O-])c(S(=O)(=O)c1ccc(C)cc1)c(N)[n+]2[O-] | > 100 | > 100 | > 100 | > 100 |  |  | > 100 |  |  |  |  | > 100 |  |  |  |  |  |  |  | 
13 | CC(=O)Nc1ccccc1Sc1ccccc1 | > 100 | > 100 | > 100 | > 100 | > 100 |  | > 100 |  |  |  |  | > 100 |  |  |  |  |  |  |  | 
14 | COc1ccccc1C1C(C(=O)Nc2ccccc2)=C(C)NC(C)=C1C(=O)Nc1ccccc1 | > 100 | > 100 | 56.8 | > 100 | > 100 |  | > 100 |  |  |  |  | > 100 |  |  |  |  |  |  |  | 
15 | O=[N+]([O-])/C=C\c1ccc(Cl)c(Cl)c1 | 5.08 | 6.05 | 6.9 | 0.624 | 3.11 |  |  | 0.379 | 1.55 | 0.249 | 3.77 | 16.7 |  | 2.42 | 7.6 | 1.46 | 2.18 | 4.78 | 1.68 | 
16 | COc1ccc2ccc3c(c2c1)CN1CCc2cc(OC)c(OC)cc2C1C3 (stereo not drawn) | > 100 | > 100 | > 100 | > 100 |  |  |  |  |  |  |  | > 100 | > 100 |  |  |  |  |  |  | 
17 | CCCCCCCCCC[C@@H](O)[C@@H]1CC[C@H]([C@H]2CC[C@@H]([C@@H](O)CCCCCCCCCC[C@H]3CC(CC(C)=O)C(=O)O3)O2)O1 (stereo partly drawn) | 33.4 | 19.1 | 18.8 | 15.4 |  |  | 17.8 |  |  |  |  | 31.3 |  |  |  |  |  |  |  | 
